Source: US9567302B2, “Carbamate compounds and of making and using same” (Abide Therapeutics, Inc., priority 2012, dated 2017)

Experiments:
Assay type in all cases: biochemical
Parameters in all cases: from tissue
MAGL = molecular target: T1, MAGL (Mus musculus, UniProt O35678); test: In vitro competitive ABPP, % inhibition at fixed concentration, MAGL
T1 sequence (O35678 1-303): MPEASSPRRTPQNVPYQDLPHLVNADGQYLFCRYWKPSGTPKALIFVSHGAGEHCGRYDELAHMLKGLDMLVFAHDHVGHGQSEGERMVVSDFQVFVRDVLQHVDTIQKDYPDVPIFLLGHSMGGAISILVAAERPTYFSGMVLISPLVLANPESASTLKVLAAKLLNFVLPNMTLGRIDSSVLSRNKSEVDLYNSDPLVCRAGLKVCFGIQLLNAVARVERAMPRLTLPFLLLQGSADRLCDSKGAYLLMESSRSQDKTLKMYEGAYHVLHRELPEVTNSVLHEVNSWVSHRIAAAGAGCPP
Method: (§1) In Vitro Competitive Activity-Based Protein Profiling.
(§2) Proteomes (mouse brain membrane fraction or cell lysates) (50 μL, 1.0 mg/ml total protein concentration) were preincubated with varying concentrations of inhibitors at 37° C. After 30 min, FP-Rh (1.0 μL, 50 μM in DMSO) was added and the mixture was incubated for another 30 min at 37° C. Reactions were quenched with SDS loading buffer (50 μL—4×) and run on SDS-PAGE. Following gel imaging, serine hydrolase activity was determined by measuring fluorescent intensity of gel bands corresponding to MAGL, ABHD6 and FAAH using ImageJ 1.43u software.

FAAH = molecular target: T2, FAAH (Mus musculus, UniProt O08914); test: In vitro competitive ABPP, % inhibition at fixed concentration, FAAH
T2 sequence (O08914 1-579): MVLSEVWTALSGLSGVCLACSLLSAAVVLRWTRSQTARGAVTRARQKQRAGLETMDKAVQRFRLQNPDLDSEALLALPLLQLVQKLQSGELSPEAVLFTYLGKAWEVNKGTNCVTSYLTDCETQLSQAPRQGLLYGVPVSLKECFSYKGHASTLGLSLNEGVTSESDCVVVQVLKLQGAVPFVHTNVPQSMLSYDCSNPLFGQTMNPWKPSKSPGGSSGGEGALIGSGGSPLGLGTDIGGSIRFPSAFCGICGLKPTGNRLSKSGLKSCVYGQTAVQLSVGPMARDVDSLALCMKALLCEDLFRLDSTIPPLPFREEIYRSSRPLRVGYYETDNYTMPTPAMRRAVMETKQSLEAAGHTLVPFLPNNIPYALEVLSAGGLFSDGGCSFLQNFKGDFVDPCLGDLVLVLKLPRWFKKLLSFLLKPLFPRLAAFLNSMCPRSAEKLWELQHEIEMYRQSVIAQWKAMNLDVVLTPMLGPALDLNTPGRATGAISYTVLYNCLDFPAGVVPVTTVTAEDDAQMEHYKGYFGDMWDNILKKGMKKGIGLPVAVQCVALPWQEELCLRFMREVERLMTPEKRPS
Method: as §1, §2

ABHD6 = molecular target: T3, ABHD6 (Mus musculus, UniProt Q8R2Y0); test: In vitro competitive ABPP, % inhibition at fixed concentration, ABHD6
T3 sequence (Q8R2Y0 1-336): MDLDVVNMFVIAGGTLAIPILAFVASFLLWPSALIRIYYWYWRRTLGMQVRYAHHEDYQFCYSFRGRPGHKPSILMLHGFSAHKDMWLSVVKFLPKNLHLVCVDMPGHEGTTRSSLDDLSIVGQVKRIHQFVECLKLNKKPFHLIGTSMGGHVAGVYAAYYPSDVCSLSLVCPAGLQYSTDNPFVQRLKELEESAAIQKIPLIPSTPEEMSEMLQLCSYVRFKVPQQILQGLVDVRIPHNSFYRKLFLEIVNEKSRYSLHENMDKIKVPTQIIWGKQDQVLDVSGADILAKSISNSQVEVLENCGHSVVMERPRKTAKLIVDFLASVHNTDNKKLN
Method: as §1, §2

| Structure (SMILES) | inhibition at 1 µM (MAGL) | inhibition at 1 µM (FAAH) | inhibition at 1 µM (ABHD6) |
| --- | --- | --- | --- |
| O=C(ON1C(=O)CCC1=O)N1CCN(C(c2ccc3c(c2)COC3)c2ccc3c(c2)COC3)CC1 [Example 157, 2,5-Dioxopyrrolidin-1-yl 4-[bis(1,3-dihydro-2-benzofuran-5-yl)methyl]piperazine-1-carboxylate] | 25 to 75% | < 25% | 25 to 75% |
| O=C(ON1C(=O)CCC1=O)N1CCC(C(O)(c2ccc3c(c2)COC3)c2ccc3c(c2)COC3)CC1 [Example 158, 2,5-Dioxopyrrolidin-1-yl 4-[bis(1,3-dihydro-2-benzofuran-5-yl)(hydroxy)methyl]piperidine-1-carboxylate] | 25 to 75% | < 25% | < 25% |
| Cc1cc(-c2ccc(CN3CCN(C(=O)ON4C(=O)CCC4=O)CC3)c(C)c2)ccn1 [Example 159, 2,5-Dioxopyrrolidin-1-yl 4-{[2-methyl-4-(2-methylpyridin-4-yl)phenyl]methyl}piperazine-1-carboxylate] | 25 to 75% | < 25% | 25 to 75% |
| O=C(ON1C(=O)CCC1=O)N1CCN(Cc2ccc(-c3cccc(F)c3)cc2F)CC1 [Example 162, 2,5-Dioxopyrrolidin-1-yl 4-{[2-fluoro-4-(3-fluorophenyl)phenyl]methyl}piperazine-1-carboxylate] | > 75% | < 25% | > 75% |
| Cc1cccc(-c2ccc(CN3CCN(C(=O)ON4C(=O)CCC4=O)CC3)c(C)c2)c1 [Example 163, 2,5-Dioxopyrrolidin-1-yl 4-{[2-methyl-4-(3-methylphenyl)phenyl]methyl}piperazine-1-carboxylate] | 25 to 75% | < 25% | 25 to 75% |
| O=C(ON1C(=O)CCC1=O)N1CCN(Cc2ccc(-c3ccccc3)cc2F)CC1 [Example 164, 2,5-Dioxopyrrolidin-1-yl 4-[(2-fluoro-4-phenylphenyl)methyl]piperazine-1-carboxylate] | > 75% | < 25% | > 75% |
| Cc1cc(-c2ccc(CN3CCN(C(=O)ON4C(=O)CCC4=O)CC3)c(F)c2)ccn1 [Example 166, 2,5-Dioxopyrrolidin-1-yl 4-{[2-fluoro-4-(2-methylpyridin-4-yl)phenyl]methyl}piperazine-1-carboxylate] | 25 to 75% | < 25% | > 75% |
| COc1cc(-c2ccccc2)ccc1CN1CCN(C(=O)ON2C(=O)CCC2=O)CC1 [Example 167, 2,5-Dioxopyrrolidin-1-yl 4-[(2-methoxy-4-phenylphenyl)methyl]piperazine-1-carboxylate] | > 75% | < 25% | 25 to 75% |
| O=C(ON1C(=O)CCC1=O)N1CCN(Cc2ccc(-c3cccc(F)c3)cn2)CC1 [Example 168, 2,5-Dioxopyrrolidin-1-yl 4-{[5-(3-fluorophenyl)pyridin-2-yl]methyl}piperazine-1-carboxylate] | 25 to 75% | < 25% | 25 to 75% |
| Cc1cccc(-c2ccc(CN3CCN(C(=O)ON4C(=O)CCC4=O)CC3)c(Oc3ccccc3)c2)c1 [Example 169, 2,5-Dioxopyrrolidin-1-yl 4-{[4-(3-methylphenyl)-2-phenoxyphenyl]methyl}piperazine-1-carboxylate] | 25 to 75% | < 25% | > 75% |
| Cc1cc(-c2cccnc2C)ccc1CN1CCN(C(=O)ON2C(=O)CCC2=O)CC1 [Example 170, 2,5-Dioxopyrrolidin-1-yl 4-{[2-methyl-4-(2-methylpyridin-3-yl)phenyl]methyl}piperazine-1-carboxylate] | 25 to 75% | < 25% | 25 to 75% |
| Cc1cc(-c2ccncc2C)ccc1CN1CCN(C(=O)ON2C(=O)CCC2=O)CC1 [Example 171, 2,5-Dioxopyrrolidin-1-yl 4-{[2-methyl-4-(3-methylpyridin-4-yl)phenyl]methyl}piperazine-1-carboxylate] | 25 to 75% | < 25% | 25 to 75% |
| Cc1cc(-c2cccnc2)ccc1CN1CCN(C(=O)ON2C(=O)CCC2=O)CC1 [Example 172, 2,5-Dioxopyrrolidin-1-yl 4-{[2-methyl-4-(pyridin-3-yl)phenyl]methyl}piperazine-1-carboxylate] | 25 to 75% | < 25% | 25 to 75% |
| Cc1cccc(-c2ccc(CN3CCN(C(=O)ON4C(=O)CCC4=O)CC3)c(C)c2)n1 [Example 173, 2,5-Dioxopyrrolidin-1-yl 4-{[2-methyl-4-(6-methylpyridin-2-yl)phenyl]methyl}piperazine-1-carboxylate] | 25 to 75% | < 25% | 25 to 75% |
| Cc1ncccc1-c1ccc(CN2CCN(C(=O)ON3C(=O)CCC3=O)CC2)c(F)c1 [Example 174, 2,5-Dioxopyrrolidin-1-yl 4-{[2-fluoro-4-(2-methylpyridin-3-yl)phenyl]methyl}piperazine-1-carboxylate] | 25 to 75% | < 25% | 25 to 75% |
| Cc1cccc(-c2ccc(CN3CCN(C(=O)ON4C(=O)CCC4=O)CC3)c(F)c2)n1 [Example 175, 2,5-Dioxopyrrolidin-1-yl 4-{[2-fluoro-4-(6-methylpyridin-2-yl)phenyl]methyl}piperazine-1-carboxylate] | 25 to 75% | < 25% | 25 to 75% |
| Cc1cc(-c2ccc(CN3CCN(C(=O)ON4C(=O)CCC4=O)CC3)c(F)c2)cc(C)n1 [Example 176, 2,5-Dioxopyrrolidin-1-yl 4-{[4-(2,6-dimethylpyridin-4-yl)-2-fluorophenyl]methyl}piperazine-1-carboxylate] | 25 to 75% | < 25% | 25 to 75% |
| Cc1cnccc1-c1ccc(CN2CCN(C(=O)ON3C(=O)CCC3=O)CC2)c(F)c1 [Example 177, 2,5-Dioxopyrrolidin-1-yl 4-{[2-fluoro-4-(3-methylpyridin-4-yl)phenyl]methyl}piperazine-1-carboxylate] | 25 to 75% | < 25% | > 75% |
| Cc1nc(CN2CCN(C(=O)ON3C(=O)CCC3=O)CC2)ccc1-c1ccccc1F [Example 178, 2,5-Dioxopyrrolidin-1-yl 4-{[5-(2-fluorophenyl)-6-methylpyridin-2-yl]methyl}piperazine-1-carboxylate] | 25 to 75% | < 25% | 25 to 75% |
| Cc1ccccc1-c1ccc(CN2CCN(C(=O)ON3C(=O)CCC3=O)CC2)nc1C [Example 179, 2,5-Dioxopyrrolidin-1-yl 4-{[6-methyl-5-(2-methylphenyl)pyridin-2-yl]methyl}piperazine-1-carboxylate] | 25 to 75% | < 25% | 25 to 75% |
| Cc1cccc(-c2ccc(CN3CCN(C(=O)ON4C(=O)CCC4=O)CC3)nc2C)c1 [Example 180, 2,5-Dioxopyrrolidin-1-yl 4-{[6-methyl-5-(3-methylphenyl)pyridin-2-yl]methyl}piperazine-1-carboxylate] | > 75% | < 25% | > 75% |
| Cc1nc(CN2CCN(C(=O)ON3C(=O)CCC3=O)CC2)ccc1-c1cccc(F)c1 [Example 181, 2,5-Dioxopyrrolidin-1-yl 4-{[5-(3-fluorophenyl)-6-methylpyridin-2-yl]methyl}piperazine-1-carboxylate] | 25 to 75% | < 25% | < 25% |
